These results are taken from patent publication US7622464B2, “Morpholinyl-urea derivatives for use in the treatment of inflammatory diseases” (Glaxo Group Limited, priority 2002, dated 2009).

This test deals with eosinophils purified from human peripheral blood. Kind of test: Eosinophil chemotaxis assay (eotaxin-induced). It counts as cell-based. The settings on record: functional pKi; inhibition of human eosinophil chemotaxis to eotaxin (EC80 concentration). As for the experimental part: (b) Eosinophil Chemotaxis Assay.
Compounds were evaluated for their inhibitory effect on eosinophil chemotaxis. Eosinophils were purified from human peripheral blood by standard CD16 cell depletion using a Miltenyi cell separation column and a magnetic Super Macs magnet as previously described (Motegi & Kita, 1998; J. Immunology. 161:4340-6). Cells were re-suspended in RPMI 1640/10% FCS solution and incubated with calcein-AM (Molecular Probes) at 37° C. for 30 mins. Following incubation, the eosinophils were centrifuged at 400 g for 5 min and re-suspended in RPMI/FCS at 2.2 million/ml. Cells were then incubated in the presence of increasing concentration of compounds (1 pM to 30 μM) at 37° C. for 30 mins. For control responses cells were incubated with RPMI/FCS only. The agonist eotaxin (an EC80 concentration) was added to the lower chamber of a 96 well chemotaxis plate (5 μm filter: Receptor Technologies). Eosinophils (50 μl of 2 million/ml cells) were added to the top chamber of the filter plate and incubated at 37° C. for 45 mins. Cells remaining on top of the chemotaxis filter were removed and the number of eosinophils which had migrated were quantified by reading the plate on a fluorescent plate reader. Inhibition curves for the effect of compounds on eosinophil chemotaxis were analysed by fitting the data with a four parameter logistic equation. […]

On to `O=C(NCc1nnn(CC2CC2)n1)NC[C@H]1CN(Cc2ccc(Cl)c(Cl)c2)CCO1` [Example 97, 1-(2-Cyclopropylmethyl-2H-tetrazol-5-ylmethyl)-3-[(2S)-4-(3,4-dichlorobenzyl)morpholin-2-ylmethyl]-urea], for which the fpKi worked out at 9.2. As for `CNC(=O)c1csc(CNC(=O)NC[C@H]2CN(Cc3ccc(Cl)c(Cl)c3)CCO2)c1` [Example 116, 5-{3-[(2S)-4-(3,4-Dichlorobenzyl)-morpholin-2-ylmethyl]-ureidomethyl}-thiophene-3-carboxylic acid methylamide], the figure is 9.8.
